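48-hour exposure; five concentrations; linearly interpolated endpoints. GI50 marks 50% less growth. TGI denotes the concentration required for complete inhibition of growth.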
Experiments:
Assay in all cases: NCI tumour cell line growth inhibition, 48 h
SW-620 colon = test system: SW-620 colon
RXF 393 renal = test system: RXF 393 renal
ACHN renal = test system: ACHN renal
SNB-75 CNS = test system: SNB-75 CNS
SR leukemia = test system: SR leukemia
NCI-H23 lung = test system: NCI-H23 lung
OVCAR-4 ovarian = test system: OVCAR-4 ovarian
SN12C renal = test system: SN12C renal
786-0 renal = test system: 786-0 renal
U251 CNS = test system: U251 CNS

Row | Structure (SMILES) | TGI (SW-620 colon) [µM] | TGI (RXF 393 renal) [µM] | TGI (ACHN renal) [µM] | TGI (SNB-75 CNS) [µM] | TGI (SR leukemia) [µM] | TGI (NCI-H23 lung) [µM] | TGI (OVCAR-4 ovarian) [µM] | TGI (SN12C renal) [µM] | TGI (786-0 renal) [µM] | TGI (U251 CNS) [µM] | GI50 (SW-620 colon) [µM] | GI50 (RXF 393 renal) [µM] | GI50 (ACHN renal) [µM] | GI50 (SNB-75 CNS) [µM] | GI50 (SR leukemia) [µM] | GI50 (NCI-H23 lung) [µM] | GI50 (OVCAR-4 ovarian) [µM] | GI50 (SN12C renal) [µM] | GI50 (786-0 renal) [µM] | GI50 (U251 CNS) [µM]
1 | CCCCCCCCCCCCCCCCOP(=O)(O)Oc1ccc(/C=C\c2ccc(OP(=O)(O)OCCCCCCCCCCCCCCCC)cc2)cc1 | > 100 | 9.1 | > 100 | 80.8 | 47.1 | > 100 | > 100 | > 100 | > 100 | > 100 | – | – | – | – | – | – | – | – | – | –
2 | O=c1[nH]c(=O)n(C2CC(O)C(CS)O2)cc1F (stereo not given) | > 100 | > 100 | > 92.4 | > 100 | > 100 | > 100 | > 100 | > 100 | > 100 | > 100 | – | – | – | – | – | – | – | – | – | –
3 | CNC1C(=O)C(C)C(O)(C(CC(C)C(O)/C=C/C=C/CNC(=O)C(C)(C)C(O)\C(C)=C/C=C\C=C\Cc2cnc(C)o2)OC)C12C(=O)OC2COC (stereo not given) (tested in a mixture with another compound) | > 46.9 | 92.3 | > 43.2 | 30.6 | 48.1 | > 60.7 | > 100 | > 82.7 | 73.7 | > 52.2 | – | – | – | – | – | – | – | – | – | –
4 | CN(C)C(=S)/N=c1\ss/c(=N\C(=S)N(C)C)n1-c1ccc2c(c1)OCO2 | > 100 | > 100 | > 100 | > 100 | > 100 | > 100 | > 100 | > 100 | > 100 | > 100 | – | – | – | – | – | – | – | – | – | –
5 | COC(=O)C(=O)C(C(=O)C(=O)Nc1ccc(C)cc1C)c1nc2ccccc2[nH]c1=O (stereo not given) | > 100 | 60 | > 100 | 69.2 | > 100 | > 100 | > 100 | > 100 | > 100 | > 100 | – | – | – | – | – | – | – | – | – | –
6 | O=C(O)C(Sc1ccc(Cl)cc1)Sc1ccc(Cl)cc1 | > 100 | > 100 | > 100 | > 100 | > 100 | > 100 | > 100 | > 100 | > 100 | > 100 | – | – | – | – | – | – | – | – | – | –
7 | CC[C@H](C)[C@H](NC(=O)[C@H]1CCCCN1C)C(=O)N(C)[C@H](CCc1nc(C(=O)N[C@@H](Cc2ccccc2)C[C@H](C)C(=O)OC)cs1)C(C)C | > 25 | > 25 | > 25 | 7.65 | 10.8 | > 25 | > 25 | > 25 | > 11.6 | > 25 | 0.213 | 0.308 | 1.75 | 0.276 | 0.0726 | 0.866 | 1.36 | 0.773 | 0.432 | 0.345
8 | COc1ccc(C(=O)/C=C/c2cccnc2Nc2cc(OC)c(OC)c(OC)c2)cc1 | 1.59 | 5.36 | 4.06 | 17.6 | 2.43 | 17.6 | 10.1 | 9.69 | 2.96 | 7 | 0.349 | 1.47 | 1.9 | 3.4 | 0.0949 | 2.24 | 1.52 | 2.43 | 1.22 | 0.926

Source: PubChem BioAssay (NCI)
